Target: T1, mouse SGLT5 (Mus musculus, UniProt Q5SWY8)
T1 construct: expressed in transfected cells; host or cells: HEK293T
T1 sequence (Q5SWY8 1-596): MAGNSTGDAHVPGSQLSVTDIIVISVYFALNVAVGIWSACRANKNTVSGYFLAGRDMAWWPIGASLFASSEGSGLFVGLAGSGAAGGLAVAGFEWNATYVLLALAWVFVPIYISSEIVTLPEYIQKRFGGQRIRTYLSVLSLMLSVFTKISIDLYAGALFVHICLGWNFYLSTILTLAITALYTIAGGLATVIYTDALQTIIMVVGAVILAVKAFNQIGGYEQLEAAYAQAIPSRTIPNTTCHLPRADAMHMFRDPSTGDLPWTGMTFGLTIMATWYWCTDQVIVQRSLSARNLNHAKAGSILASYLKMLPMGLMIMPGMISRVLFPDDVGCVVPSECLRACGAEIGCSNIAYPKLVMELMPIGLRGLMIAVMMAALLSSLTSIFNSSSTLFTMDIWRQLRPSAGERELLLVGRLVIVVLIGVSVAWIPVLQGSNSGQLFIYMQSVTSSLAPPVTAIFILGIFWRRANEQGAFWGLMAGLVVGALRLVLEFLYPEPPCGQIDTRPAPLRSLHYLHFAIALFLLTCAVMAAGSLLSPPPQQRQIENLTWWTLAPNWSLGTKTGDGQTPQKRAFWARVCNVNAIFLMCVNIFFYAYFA
Assay: Radioactive uptake assay (saturation kinetics) in HEK293T cells expressing mouse SGLT5
Type: cell-based
Experimental: For a typical transporter experiment we proceeded as follows. […] To minimize cell loss during the various washing steps in the radioactive uptake experiments, the wells where the cells were seeded were previously coated with poly- D-lysine, which improved their adhesion to the plastic surface of the wells. For this, each well of the 24-well plates was treated with 200 µl of a 0.01% poly-L-lysine solution for 10 min, washed 3 times with 1 ml of sterilized water and left to dry for 2 h. Only then could the 24-well plates be seeded with the appropriate cell lines and cultured overnight at 37 °C in 5% CO2.
On day two, the radioactive uptake assay could be performed. […]
Once the uptake medium was added to the cells, the plates were incubated at 37 °C in 5% CO2 during the required time. […] In each experiment, the transport activities were calculated after subtracting a “blank” value, corresponding to the radioactivity in the appropriate control cells (HEK293T cells that were stably or transiently transfected with one of the parent plasmids pEF6/MycHisA, pEF6HisB, pUB82 or pUB83 with no inserted cDNA) that were analyzed in parallel. […]
Supplementary Fig. 4: Transport activities for 1,5-anhydroglucitol and mannose of recombinant mouse SGLT4 and SGLT5 isoforms measured in HEK293T cells. […]

OC[C@H]1OC[C@H](O)[C@@H](O)[C@@H]1O [1,5-AG, 1,5-anhydroglucitol]
mSGLT5 Vmax (30 min, Supplementary Fig. 4): 16 pmol/min/100 000 cells | higher affinity of mouse SGLT5 than mouse SGLT4 for 1,5-AG (mouse SGLT5 versus mouse SGLT4): over tenfold
